Columns and labels:
Assay type in all cases: cell-based
[1] = system: Streptococcus mutans (ATCC 25175); experiment: Minimum inhibitory concentration, Streptococcus mutans
Method: (§1) Method for Determining the Minimum Inhibitory Concentration
(§2) The samples, to determine the minimum inhibitory concentration, are dissolved in WSH (water of standardized hardness) and mixed with twice-concentrated Caso-Bouillon pH 5.5. After inoculation with the test organisms, the solutions of the test organisms Streptococcus mutans (ATCC 25175) and Actinomyces odontolyticus (ATCC 17982) were overlayered with paraffin and incubated for a period of three days at a temperature of 37° C.
(§3) The solution of the test organism Staphylococcus aureus (ATCC 6538) was incubated for two days at 37° C. The samples were then streaked onto Caso agar and incubated for two days at 37° C.

[2] = system: Actinomyces odontolyticus (ATCC 17982); experiment: Minimum inhibitory concentration, Actinomyces odontolyticus
Method: as §1, §2, §3

[3] = system: Staphylococcus aureus (ATCC 6538); experiment: Minimum inhibitory concentration, Staphylococcus aureus
Method: as §1, §2, §3

[4] = Streptococcus mutans (ATCC 25175), Caso-Bouillon pH 5.5, overlayered with paraffin, three days at 37° C.
[5] = Actinomyces odontolyticus (ATCC 17982), Caso-Bouillon pH 5.5, overlayered with paraffin, three days at 37° C.
[6] = Staphylococcus aureus (ATCC 6538), Caso-Bouillon pH 5.5, two days at 37° C.

SMILES | Minimum inhibitory concentration ([1]; pH 5.5) | Minimum inhibitory concentration ([2]; pH 5.5) | Minimum inhibitory concentration ([3]; pH 5.5) | further results
CC1=CC(=O)[N-]S(=O)(=O)O1.[Ag+] [Ag(acesulfame).0.25H2O, Acesulfame-Silver Complex] |  |  |  | Minimum inhibitory concentration [1, 4]: 18.31 mM; Minimum inhibitory concentration [2, 5]: 18.31 mM; Minimum inhibitory concentration [3, 6]: 3.65 mM
O=[N+]([O-])[O-].[Ag+] [AgNO3, silver(I) nitrate] |  |  |  | Minimum inhibitory concentration [1, 4]: 5.91 mM; Minimum inhibitory concentration [2, 5]: 5.91 mM; Minimum inhibitory concentration [3, 6]: 5.91 mM
CCCCCCCCCCCCCCCC[n+]1ccccc1.O.[Cl-] [Cetylpridinium chloride.H2O, cetylpyridinium chloride.H2O] | 0.00279 mM | 0.00279 mM | 0.13966 mM | 
CC1=CC(=O)[N-]S(=O)(=O)O1.CCCCCCCCCCCCCCCC[n+]1ccccc1 [Cetylpyridinium(acesulfame), Acesulfame-Cetylpyridinium Complex] | 0.00214 mM | 0.00214 mM | 0.10703 mM | 
O.O.O.O.O.O=S(=O)([O-])[O-].[Cu+2] [CuSO4.5H2O, copper(II) sulfate pentahydrate] | 4.01 mM | 20.13 mM | 20.13 mM | 
CC1=CC(=O)[N]([Zn]([OH])([OH])[N]2C(=O)C=C(C)OS2(=O)=O)S(=O)(=O)O1 [Zn(acesulfame)2.2H2O, Acesulfame-Zinc Complex] |  |  |  | MIC ([1]; ATCC25175, 72 h, Streptococcus mutans (ATCC 25175), Caso-Bouillon pH 5.5, overlayered with paraffin, three days at 37° C.): 23.7 mM; MIC ([2]; Schaalia odontolytica, ATCC17982, 72 h, Actinomyces odontolyticus (ATCC 17982), Caso-Bouillon pH 5.5, overlayered with paraffin, three days at 37° C.): 11.8 mM; MIC ([3]; ATCC6538, 48 h, Staphylococcus aureus (ATCC 6538), Caso-Bouillon pH 5.5, two days at 37° C.): 23.7 mM
O.O.O.O.O.O.O.O=S(=O)([O-])[O-].[Zn+2] [ZnSO4.7H2O, zinc(II) sulfate heptahydrate] | 17.5 mM | 17.5 mM | 17.5 mM | 

Reference: patent US6759544B2, “Antimicrobially active acesulfame complexes, process for their preparation and their use” (Nutrinova Nutrition Specialties & Food Ingredients GmbH, priority 2001, dated 2004)
